Assay results taken from patent publication US9394266B2, “Solid state forms of cabazitaxel and processes for preparation thereof” (IVAX International GmbH, priority 2012, dated 2016).

Experiment: Hygroscopicity test: exposure to controlled relative humidity, XRPD and Karl-Fischer water content before and after
Format: physicochemical
Conditions: about room temperature; for conversion to another solid state form of Cabazitaxel (polymorphic stability): normal atmospheric humidity, 60%, 80% and 100% RH, two days exposure; for hygroscopicity: various relative humidity conditions
Method: Hygroscopicity Test Procedure:
About 150 mg of a sample was placed to a cell with controlled relative humidity. The samples were exposed to 60%, 80% and 100% relative humidity for a period of two days. XRPD analysis and water content by coulometric Karl-Fischer titration were carried out before and after the exposure to the defined relative humidity. Coulometric Karl-Fischer Titration: Water was determined by KF Oven method (832 KF Thermoprep connected to 831 KF Coulometer). Water from the sample (50 mg of cabazitaxel) was released by nitrogen stream at 130° C. Extraction time was 10 minutes.

hygroscopicity | SMILES | conversion to another solid state form of Cabazitaxel (polymorphic stability)
low-hygroscopicity form | CO[C@H]1C(=O)[C@]2(C)[C@@H](OC)C[C@H]3OC[C@@]3(OC(C)=O)[C@H]2[C@H](OC(=O)c2ccccc2)[C@]2(O)C[C@H](OC(=O)[C@H](O)[C@@H](NC(=O)OC(C)(C)C)c3ccccc3)C(C)=C1C2(C)C [Form VII, Cabazitaxel ethyl acetate solvate] | does not convert to any other form of Cabazitaxel
low-hygroscopicity form | CO[C@H]1C(=O)[C@]2(C)[C@@H](OC)C[C@H]3OC[C@@]3(OC(C)=O)[C@H]2[C@H](OC(=O)c2ccccc2)[C@]2(O)C[C@H](OC(=O)[C@H](O)[C@@H](NC(=O)OC(C)(C)C)c3ccccc3)C(C)=C1C2(C)C [Form X, Cabazitaxel methyl isobutyl ketone solvate] | does not convert to any other forms of Cabazitaxel
 | CO[C@H]1C(=O)[C@]2(C)[C@@H](OC)C[C@H]3OC[C@@]3(OC(C)=O)[C@H]2[C@H](OC(=O)c2ccccc2)[C@]2(O)C[C@H](OC(=O)[C@H](O)[C@@H](NC(=O)OC(C)(C)C)c3ccccc3)C(C)=C1C2(C)C [acetone solvate, Cabazitaxel acetone solvate, reference compound] | already transform to the anhydrous form B after two days
